From US11938190B2, “Herbal extracts for treatment of herpesvirus infections” (KAMEDIS LTD., priority 2018, dated 2024) come the findings set out here.

Broadly, the IC50 is the concentration at which inhibition is half-maximal.

Molecules are shown by their SMILES. In brackets after ≈: the same amount, converted by molar mass.

The test system of the assay is Herpes Simplex Virus type 1 (HSV-1). The experiment in a line: microbe, parasite or virus in culture. The assay is classed as cell-based. Particulars: Human alphaherpesvirus 1; Example 2; acyclovir dose-response curve; EYFP-HSV-1, Vero cells.

In the case of `Nc1nc2c(ncn2COCCO)c(=O)[nH]1` [Acyclovir], inhibition was half-maximal at 0.126 ± 0.014 µg/mL (≈ 0.559 µM) (IC50).
